Read-outs that look alike come from different tables or passages of the source.

Data set [1] can be described thus: Cytotoxicity assay (MTT) on Vero cells. The following applies: African green monkey. Format: cell-based. As to the method: (§1) Vero (African green monkey kidney, ATCC CCL-81) cells were grown in Eagle’s minimum essential medium (MEM, Gibco™ Thermo Fisher Scientific, Waltham, MA, USA) supplemented with 5% heat-inactivated newborn bovine serum (NBS, Gibco™ Thermo Fisher Scientific, Carlsbad, CA, USA) and 1.5 g/L of sodium bicarbonate in a 5% CO2 atmosphere. For the maintenance medium (MM), the serum concentration was reduced to 1.5%. The C6/36 HT mosquito cell line from Aedes albopictus (ATCC CRL-1660), adapted to grow at 33 °C, was cultured in L-15 Medium (Leibovitz) supplemented with 0.3% tryptose phosphate broth, 0.02% glutamine, 1% MEM non-essential amino acids solution, and 5% FBS. The original stock of DENV-2 strain NGC was prepared in C6/36 cells and titrated via plaque formation in Vero cells.
Confluent cell monolayers in 96-well plates were exposed for 48 h to serial two-fold compound dilutions, four wells for each concentration, and then viability was tested. The concentration range evaluated for extracts was 1–250 µg/mL, and for pure compounds, it was 1–200 µM or 1–100 µM depending on the phytochemical. […] Cell cultures treated with 0.01% concentration of vehicle (DMSO or methanol) were taken as cell control. Cell viability determinations were performed by the 3-(4,5-dimethylthiazol-2-yl)-2,5-diphenyl tetrazolium bromide (MTT, Sigma-Aldrich, St. Louis, MO, USA) method, adding 10 µL of MM containing MTT reagent (final concentration 0.5 mg/mL) to each well. After 2 h of incubation at 37 °C, the supernatants were removed, 100 µL of ethanol was added per well to solubilize the formazan crystals, and absorbance was measured at 595 nm. Viability values (% respect to cell control): The cytotoxic concentration 50% (CC50) was calculated via non-linear regression using GraphPad Prism (v9.0.) software as the compound concentration required to reduce the MTT signal by 50% compared to cell controls treated with vehicle (DMSO or methanol), and it is presented as the mean ± standard deviation (SD) obtained from three independent experiments.

The test system of another data set is DENV-2. The data set can be described thus: Antiviral activity, virus yield inhibition assay (plaque assay) against DENV-2 in Vero cells. The conditions noted are these: for activity against DENV-2 (in words): DENV-2 in Vero cells. Format: cell-based, dengue virus (DENV-2 strain NGC). As to the method: Figure 3 Antiviral activity of dichloromethane (A) and methanolic extracts (B) and against DENV-2 in Vero cells. Cells were infected with DENV-2 (m.o.i. 0.1 PFU/cell) and, after 1 h adsorption at 37 °C, were treated with medium containing different dilutions of the dichloromethane extracts or vehicle. After 48h of infection, viral yield was determined via plaque assay. […] Results are expressed as the mean values ± standard deviation (SD).
Figure 4 Antiviral activity of pure compounds against DENV-2 in Vero cells. Cells were infected with DENV-2 (m.o.i. 0.1 PFU/cell) and, after 1 h adsorption at 37 °C, were treated with medium containing different dilutions of the pure compounds or vehicle (dimethyl sulfoxide). After 48 h of infection, viral yield was determined via plaque assay. Results are expressed as the mean values ± standard deviation (SD).
as §1
Antiviral activity was evaluated with a virus yield inhibition assay. Cells grown in 24-well microplates were infected with DENV-2 at a multiplicity of infection (m.o.i.) of 0.1 PFU/cell, and after 1 h adsorption at 37 °C, the unadsorbed virus was removed by washing with PBS and refed with MM containing different two-fold dilutions of each compound or vehicle (DMSO or methanol). […] The concentration of the solvent used for the control was the maximum present in the highest concentration of the extract or compound evaluated. After 48 h of infection, supernatants were collected and cooled down, and serial dilutions were prepared to infect Vero cell monolayers to measure virus yield via the PFU method. After viral adsorption for 1 h at 37 °C, the virus excess was removed; MM supplemented with 0.7% methylcellulose was added and cells were incubated for 1 week at 37 °C in a 5% CO2 incubator. Finally, cell monolayers were fixed with 10% formaldehyde, washed, and stained with a 1% solution of crystal violet, and PFU were counted. Inhibition values (% respect to viral control): The effective concentration 50% (EC50), as the concentration required to reduce virus yield by 50% in the compound-treated cultures, was calculated via non-linear regression using GraphPad Prism (v9.0) software, compared with viral control treated with vehicle (DMSO or methanol), and presented as the mean ± SD obtained from three independent experiments.

The subject of the next data set is human cancer cell lines. Further details: method as in PMID 32805622. The following applies: cited from earlier work.
[2] abbreviates: pure phytochemicals, Vero cells, 48 h, MTT, mean of three determinations ± SD, read-out: CC50.
The mark [3] stands for this setting: Vero cells (confluent monolayers), pure phytochemicals, Vero cells, 48 h, MTT, mean of three determinations ± SD, read-out: CC50.
Where [4] appears, read: Dengue virus, DENV2, Vero, 48 h, pure phytochemicals, concentration reducing DENV-2 yield by 50%, Vero cells, m.o.i. 0.1, 48 h, mean of three ± SD.
Where [5] appears, read: pure phytochemicals, concentration reducing DENV-2 yield by 50%, Vero cells, m.o.i. 0.1, 48 h, mean of three ± SD.

`C=C1C(=O)O[C@H]2C[C@]3(C)O[C@@H]3[C@@H]3O[C@@H]3C3=C[C@@H](OC3=O)[C@H]12` [Compound 1, mikanolide]: in data set [1], the CC50 (commonly the concentration that lowers cell viability or growth by half) stood at 6.69 ± 0.49 µM. For the same molecule, the EC50 (usually the concentration needed to bring the measured effect to its halfway point) in the data set with DENV-2 (Dengue virus, DENV2, Vero, 48 h) is greater than 2 µM.
For the molecule `C=C1C(=O)O[C@@H]2/C=C(\C)CC/C=C(\C)C[C@@H](OC(=O)/C(=C/CO)CO)[C@@H]12` [Compound 2, eupatoriopicrin], in data set [1] (setting [2]), the 50% cytotoxic concentration (CC50) came to 10.8 ± 0.88 µM. Besides, the EC50 in the data set with DENV-2 (Dengue virus, DENV2, pure phytochemicals, concentration reducing DENV-2 yield by 50%, Vero cells, m.o.i. 0.1, 48 h, mean of three ± SD, read-out: EC50) is greater than 2 µM.
`C=C1C(=O)O[C@@H]2[C@H]3C(C)=CC[C@H]3C(=C)C[C@@H](OC(=O)/C(=C/CO)CO)[C@@H]12` [Compound 3, eupahakonenin B]: the CC50 at 48 h in data set [1] (setting [3]) turned out to be 11.2 ± 0.36 µM. The molecule further displayed an EC50 in the data set with DENV-2 (setting [4]) greater than 2 µM.
The corresponding values for `C=C1C(=O)O[C@@H]2/C=C(\CO)CC/C=C(\COC(C)=O)C[C@H](OC(C)=O)[C@@H]12` [Compound 4, minimolide] are 10.6 ± 0.55 µM and greater than 2 µM.
The corresponding values for `C=C1C(=O)OC2C1CCC(=C)C1CC3OC3(C)C12` (centres unmarked) [Compound 5, estafietin] are 23.5 ± 0.99 µM and greater than 2 µM.
On to `C=C1CC[C@H]2C(=C)C(=O)O[C@@H]2[C@H]2C(C)=CC(=O)[C@@H]12` [Compound 6, 2-oxo-8-deoxyligustrin], for which the CC50 at 48 h in data set [1] (setting [3]) is 21.8 ± 4.15 µM. Further, the results for the concentration giving a half-maximal response (EC50) in the data set with DENV-2 (setting [4]) and with DENV-2 (setting [5]) were 3.7 µM and 3.72 ± 0.28 µM, respectively.
Take `C=C1C(=O)O[C@@H]2/C=C(\C)[C@@H](O)C/C=C(\C)C[C@@H](OC(=O)/C(=C/CO)COC(C)=O)[C@@H]12` [Compound 7, santhemoidin C]: in data set [1] (setting [3]), the 50% cytotoxic concentration (CC50) at 48 h was determined as 21 ± 3.65 µM. In addition, the concentration giving a half-maximal response (EC50) with DENV-2 (setting [4]) amounted to 3.1 µM; in the data set with DENV-2 (setting [5]), 3.12 ± 1.39 µM.
With `C=C(C)c1cc2cc(C(C)=O)c(O)cc2o1` [Compound 8, euparin], the CC50 at 48 h in data set [1] (setting [2]) is greater than 500 µM. Moreover, the EC50 was found to be 6.8 µM in the data set with DENV-2 (setting [4]) and 6.81 ± 0.2 µM in the data set with DENV-2 (setting [5]).
`COc1cc(-c2oc3cc(O)c(OC)c(O)c3c(=O)c2OC)ccc1O` [Compound 9, jaceidin]: the 50% cytotoxic concentration (CC50) at 48 h in data set [1] (setting [3]) was greater than 100 µM. In the data set with DENV-2 (setting [4]), this molecule registered a concentration for a half-maximal effect (EC50) greater than 2 µM.
Take `COc1c(O)cc2oc(-c3ccc(O)c(O)c3)cc(=O)c2c1O` [Compound 10, nepetin]: the cytotoxic concentration (CC50) at 48 h in data set [1] is greater than 100 µM. Also, the “activity against DENV-2 (in words)” value in the data set with DENV-2 was “inactive”. The concentration giving a half-maximal response (EC50) in the data set on DENV-2 (setting [4]) is greater than 2 µM.
As to `COc1cc(-c2cc(=O)c3c(O)c(OC)c(O)cc3o2)ccc1O` [Compound 11, jaceosidin], in data set [1] (setting [3]), the CC50 at 48 h is greater than 100 µM. In the data set on DENV-2, the “activity against DENV-2 (in words)” value was “inactive”. In the data set with DENV-2 (setting [4]), this molecule returned a concentration for a half-maximal effect (EC50) greater than 2 µM.
Consider `O=C1C[C@@H](c2ccc(O)c(O)c2)Oc2cc(O)cc(O)c21` [Compound 12, eryodictiol], for which the CC50 at 48 h in data set [1] (setting [3]) was greater than 100 µM. The 50% effective concentration (EC50) with DENV-2 (setting [4]) was greater than 2 µM.
Regarding `COc1ccc(-c2cc(=O)c3c(O)c(OC)c(OC)cc3o2)cc1O` [Compound 13, eupatorin], in data set [1] (setting [2]), the CC50 is greater than 200 µM. Moreover, the concentration giving a half-maximal response (EC50) with DENV-2 (setting [4]) was greater than 2 µM.
`COc1ccc(-c2cc(=O)c3c(O)c(OC)c(OC)cc3o2)cc1OC` [Compound 14, 5-demethylsinensetin]: the CC50 at 48 h in data set [1] (setting [3]) was 184 ± 27.8 µM. In addition, the EC50 in the data set on DENV-2 (setting [4]) is greater than 2 µM.
Take macrocephalide A: the “50% cell growth inhibitions” value in the data set with human cancer cell lines is on record as 0.576 µM.
On to macrocephalide B, for which the “50% cell growth inhibitions” value in the data set with human cancer cell lines is recorded as 6.37 µM.

(Values after publication PMC10891539, “Plant Extracts and Phytochemicals from the Asteraceae Family with Antiviral Properties” (Molecules, 2024).)
